Converted amounts (≈) assume the structure as drawn. Where two headings read alike, the source gives them in different places.
Columns and labels:
[1] = Saturation solubility of DTX in the solution-filled reservoir; assay type: physicochemical; details: 40 mg/ml BSA solution in PBS inside the device reservoir, aqueous buffer, thermodynamic from solid; solid DTX dissolved by BSA solution in PBS inside the reservoir, 37° C.
Experimental: Step 8: The device was exposed to a 40 mg/ml bovine serum albumin (BSA, Sigma-Aldrich Canada Ltd., Ontario, Canada) solution in phosphate buffered saline (PBS) and incubated at 37° C. to increase the wet ability of the magnetic PDMS membrane and thus filling of the drug reservoir with water. The hydrophilic aperture walls results in surface-tension driven flow through the aperture and gradual filling of the reservoir with solution.

[2] = HPLC test of drug released after 8 months inside the device; assay type: physicochemical; details: HPLC after 8 months encapsulated inside the device
Experimental: The released drug from the device was tested with HPLC after 8 months that was encapsulated inside the device.

PC3 cells = experiment: PC3 cell viability (MTS assay); assay type: cell-based; details: for cell viability equilibrated: PC3 cells, 2 days incubation
Experimental: (§1) A prototype device was actuated at the desired number of actuations in 1% BSA solution. The released DTX was extracted in 1 ml DCM, as described previously. This mixture was dried down under nitrogen flow at 40° C. and was then reconstituted in either HUVEC and PC3 cell media to the original volume of 4 ml. Alternatively, fresh solutions of free DTX were prepared in various concentrations (2-250 nM) in acetonitrile, dried down under nitrogen flow at 40° C., and reconstituted in cell media.
PC3 and HUVEC cells were seeded in 96 well plates in their respective media at a concentration of 1500 cells per well. The cells were allowed to equilibrate for 2 days at which time they became approximately 50% confluent and were ready for drug incubation. Cells were incubated for 2 days at 37° C. with 200 μl of either freshly prepared solutions of DTX at various concentrations or with the drug solution released from the device under various number of device actuations. Cell viability was determined using a CellTiter 96 AQueous Non-Radioactive Cell Proliferation Assay (MTS assay, Promega Corporation, Madison, Wis.) and quantified by reading the absorbance at 492 nm minus the absorbance at 610 nm using a spectrometric plate reader. In both experiments, the values presented are for the averages of six replicas for each condition.
The biological activity of the DTX released from a device was investigated. This was achieved by incubating cells with the released drug in cell culture media and measuring the drug induced inhibition of proliferation in comparison to the inhibition caused by freshly made drug solutions. The device used for this study had been fabricated and left in BSA solution for two months (with an open aperture) prior to the experiment. The amount of DTX release during this period was estimated to be about 4.5 μg based on measured DTX diffusion rate. It was then actuated under a 255 mT magnetic field for different numbers of actuation cycles. The amounts of released drug were then experimentally interpolated from “number of actuations” to “drug concentrations”, using FIG. 4-a. […]

HUVECs = experiment: HUVEC viability (MTS assay); assay type: cell-based; details: 2 days incubation
Experimental: as §1
PC3 and HUVEC cells were seeded in 96 well plates in their respective media at a concentration of 1500 cells per well. The cells were allowed to equilibrate for 2 days at which time they became approximately 50% confluent and were ready for drug incubation. […] Cell viability was determined using a CellTiter 96 AQueous Non-Radioactive Cell Proliferation Assay (MTS assay, Promega Corporation, Madison, Wis.) and quantified by reading the absorbance at 492 nm minus the absorbance at 610 nm using a spectrometric plate reader. […]
The biological activity of the DTX released from a device was investigated. […] The amount of DTX release during this period was estimated to be about 4.5 μg based on measured DTX diffusion rate. […]

[3] = cited from earlier work
[4] = drug released from the device (255 mT, device kept two months in BSA solution)

solubility [1] [µg/mL]	drug remained intact [2]	SMILES	cell viability equilibrated (PC3 cells; [4])	cell viability equilibrated (PC3 cells; fresh free drug)	stability of DTX inside the PDMS MEMS device (PC3 cells; after two months, judged by antiproliferative effect)	cell viability equilibrated (HUVECs; [4])	cell viability equilibrated (HUVECs; fresh free drug)	solubility [3] [µg/mL]
~5 (≈ 0.00619 mM)	over 95%	CC(=O)O[C@@]12CO[C@@H]1C[C@H](O)[C@@]1(C)C(=O)[C@H](O)C3=C(C)[C@@H](OC(=O)[C@H](O)[C@@H](NC(=O)OC(C)(C)C)c4ccccc4)C[C@@](O)([C@@H](OC(=O)c4ccccc4)[C@H]21)C3(C)C [DTX, docetaxel]	about 34%	about 34%	does not degrade	about 24%	about 24%	
		CC(C)OC(=O)CCC/C=C\C[C@@H]1[C@@H](CC[C@@H](O)CCc2ccccc2)[C@H](O)C[C@@H]1O [latanoprost]						50000 (≈ 116 mM)
		CC(C)(C)NC[C@H](O)COc1nsnc1N1CCOCC1 [timolol]						2500 (≈ 7.9 mM)
